Results from EP4592286A1, “MACROCYCLIC NITROGEN-CONTAINING CROWN ETHER COMPOUND AND USE THEREOF AS PROTEIN KINASE INHIBITOR” (Artivila Biopharma, priority 2022, dated 2024).
≈ marks a conversion by molar mass, not a printed value.

Experiments:
[1] = molecular target: JAK2 (Homo sapiens, UniProt O60674); assay: experiment of inhibiting kinase activity (Caliper mobility shift assay), JAK2; assay type: biochemical; conditions: read-out: inhibition rate JAK2; for inhibition at 0.01 µM: at 10 nM
Outline: (§1)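 IC50 values come from variable-slope fits of % conversion inhibition versus log compound concentration. Kinase and inhibitor were preincubated for 10 min at room temperature, and the reaction was then initiated with ATP and substrate and read by mobility shift.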

[2] = molecular target: T1, LRRK2 (Homo sapiens, UniProt Q5S007); assay: experiment of inhibiting kinase activity, LRRK2; assay type: biochemical; conditions: read-out: inhibition rate LRRK2; for inhibition at 0.01 µM: at 10 nM
Method: (§2) The inhibition rates of tested compounds on JAK1, JAK2, JAK3, TYK2, CDK7, CDK9, EGFR (T790M) and LRRK2 kinases were measured. The test concentrations of the compounds were 10 nM and 100 nM, and the detection was performed by replicate wells. Alternatively, compounds were 3-fold serial diluted from 10 µM for 10 concentrations in replicate wells.

[3] = molecular target: TYK2 (Homo sapiens, UniProt P29597); assay: experiment of inhibiting kinase activity, TYK2; assay type: biochemical; conditions: read-out: inhibition rate TYK2
Method: as §2

[4] = measurement of the solubility of compounds in water and diluted hydrochloric acid; assay type: physicochemical; conditions: thermodynamic from solid; for solubility at 1 h: simulated gastric fluid, diluted hydrochloric acid solution A (pH-1.5), room temperature; for solubility: ultrapure water (pH-6), room temperature overnight
Method: Example 117: measurement of the solubility of compounds in water and diluted hydrochloric acid
The compounds were dissolved in acetonitrile (LCMS pure) and prepared into standard samples having the concentration gradient of 1000 µg/mL, 500 µg/mL, 250 µg/mL, 125 µg/mL, 62.5 µg/mL, and 31.25 µg/mL.
(§3) About 1.0 mg of the powder of the compound to be tested was weighed and added to 0.3 mL of ultrapure water (pH-6), the resulting mixture was shaked thoroughly at room temperature overnight and centrifuged, and the supernatant was taken and diluted 10 times with acetonitrile. The sample was analyzed after mixing evenly.
as §3, with “153.8 µL of 6 M HCl was pipetted, 20 mL of water was added, and mixed evenly to prepare diluted hydrochloric acid solution A (pH-1.5). About” for “About”, “diluted hydrochloric acid solution A,” for “ultrapure water (pH-6),”, “for 1 hour” for “overnight”
The standard sample and the sample to be tested were analyzed by Shimadzu LCMS-2020, where chromatographic column was Skim-psck GIST 5 µm C18 2.1*[…]; mobile phase A was water and mobile phase B was methanol; and flow rate was 0.3 mL/min. The gradient of B was as the following: 0 min: 10%; 0-1.0 min: 10%; 1.0-2.5 min: 95%; 3.0-4.0 min: 95%; 4.0-4.1 min: 10%; 4.1-6.0 min: 10%.
The relationship between the concentration and peak area of the standard sample was ploted into a standard curve, and the concentration of the sample to be tested was calibrated using this standard curve. Compound solubility = concentration of the sample to be tested × 10 [formula]

[5] = molecular target: T2, JAK3 (Homo sapiens, UniProt P52333); assay: experiment of inhibiting kinase activity (Caliper mobility shift assay), JAK3; assay type: biochemical; conditions: read-out: inhibition rate JAK3; for inhibition at 0.01 µM: at 10 nM
T2 sequence (P52333 1-1124): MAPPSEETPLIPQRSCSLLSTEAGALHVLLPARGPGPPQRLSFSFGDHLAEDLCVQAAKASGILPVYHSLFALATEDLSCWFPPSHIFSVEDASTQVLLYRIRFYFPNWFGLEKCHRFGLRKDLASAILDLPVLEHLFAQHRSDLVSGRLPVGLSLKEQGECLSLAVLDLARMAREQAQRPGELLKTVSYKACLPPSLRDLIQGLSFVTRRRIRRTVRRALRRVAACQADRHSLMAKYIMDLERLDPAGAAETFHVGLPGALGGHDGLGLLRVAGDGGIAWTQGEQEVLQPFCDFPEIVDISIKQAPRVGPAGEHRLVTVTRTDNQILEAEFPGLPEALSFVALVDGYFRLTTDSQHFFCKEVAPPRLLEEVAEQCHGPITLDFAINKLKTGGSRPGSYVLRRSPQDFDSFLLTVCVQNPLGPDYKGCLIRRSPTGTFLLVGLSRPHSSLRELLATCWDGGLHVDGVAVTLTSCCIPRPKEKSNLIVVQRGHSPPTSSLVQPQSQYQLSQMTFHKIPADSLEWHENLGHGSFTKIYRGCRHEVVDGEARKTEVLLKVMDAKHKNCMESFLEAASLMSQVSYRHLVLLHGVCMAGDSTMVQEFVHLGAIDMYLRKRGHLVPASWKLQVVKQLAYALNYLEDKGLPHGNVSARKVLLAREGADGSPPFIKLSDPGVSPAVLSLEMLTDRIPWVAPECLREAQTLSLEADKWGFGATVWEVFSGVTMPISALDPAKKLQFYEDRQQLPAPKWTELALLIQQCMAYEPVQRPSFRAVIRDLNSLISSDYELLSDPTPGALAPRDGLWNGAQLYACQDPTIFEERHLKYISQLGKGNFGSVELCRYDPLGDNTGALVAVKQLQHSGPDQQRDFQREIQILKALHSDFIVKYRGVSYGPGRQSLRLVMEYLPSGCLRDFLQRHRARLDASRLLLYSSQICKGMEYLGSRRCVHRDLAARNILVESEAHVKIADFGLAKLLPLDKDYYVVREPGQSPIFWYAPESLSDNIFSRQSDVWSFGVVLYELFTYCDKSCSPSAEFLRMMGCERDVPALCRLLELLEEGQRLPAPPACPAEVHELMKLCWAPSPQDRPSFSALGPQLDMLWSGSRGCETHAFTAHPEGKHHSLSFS
Outline: as §1

[6] = molecular target: JAK1 (Homo sapiens, UniProt P23458); assay: experiment of inhibiting kinase activity (Caliper mobility shift assay), JAK1; assay type: biochemical; conditions: read-out: inhibition rate JAK1
Outline: as §1

[7] = molecular target: T1, LRRK2; assay: experiment of inhibiting LRRK2 kinase activity (ADP-Glo method); assay type: biochemical; conditions: Table 4
Method: The inhibitory effect of the compounds on the activity of LRRK2 kinase was detected by ADP-Glo method. The diluted solutions of the compounds were transfered to a 384-well plate (784075, Greiner), the plate was sealed and centrifuged at a speed of 1000 g for 1 minute. A kinase solution at 2-fold final concentration was prepared with 1×kinase buffer, 2.5 µl of the kinase solution with 2-fold final concentration was added to the wells, the plate was centrifuged at 1000 g for 30 seconds, and left at room temperature for 10 minutes. A mixed solution of ATP and kinase substrate at 2-fold final concentration was prepared with 1×kinase buffer, and 2.5 µL of mixed solution of ATP and substrate at 2-fold final concentration was added to start the reaction. The plate was centrifuged at 1000 g for 30 seconds, sealed and left at room temperature for 2 hours. 4 µL of ADP-Glo reagent was added and incubated at room temperature for 40 minutes; 8 µL kinase detection reagent was added and incubated at room temperature for another 40 minutes. The luminescence signal value was detected on Envision 2104 microplate reader. The conversion inhibition rate%=100-(compound signal value-positive control signal value)/(blank control signal value-positive control signal value)×100.
The IC50 was calculated with GraphPad 6.0 and the dose-responsive curve of the compounds was plotted as follows: y=Bottom+(Top-Bottom)/(1+10^((logic50-x)×hillslope)), where x was logarithm of inhibitor concentration; and y was % inhibition rate.

[8] = molecular target: T3, endogenous phosphorylated LRRK2 (S935) (Homo sapiens, UniProt Q5S007); assay: detection of endogenous phosphorylated LRRK2 (S935) in A549 cells (Western blot); assay type: cell-based; conditions: at 2 µM, LRRK2 (S935) activity in A549 cells, 15 hours; read-out: Inhibition rate
T3 construct: Detection of endogenous phosphorylated LRRK2 (S935) in A549 cells; endogenous in cells; host or cells: A549
Method: Detection of endogenous phosphorylated LRRK2 (S935) in A549 cells
A549 cells were resuspended in serum-free 1640 medium at a density of 1×10^6 cells/ml, and inoculated into a 6-well plate at 1 ml/well, and cultured at 37°C and 5% CO2 for 6-8 hours. 1 microliter of compound solution in DMSO or DMSO (volume ratio of 0.1%) was added, mixed evenly, and cultivated at 37°C and 5% CO2 for 15 hours. Cells were collected, 50 microliters of RIPA III lysis solution were added to each sample to lyse cells on ice for 15 minutes, centrifuged at 4°C and 13000 rpm for 30 minutes, the supernatant was collected, the protein concentration of cell lysis solution was measured by BCA, and the protein concentrations of all samples were normalized. 5×sample loading buffer were added and kept at 95°C for 10 minutes. The content of phosphorylated S935 of endogenous LRRK2 was detected by Western blot, using antibody against phosphorylated LRRK2 (S935) (Abcam#133450). The signal intensity of phosphorylated LRRK2 (S935) was counted by Image J, the signal of phosphorylated LRRK2 (S935) in a sample was normalized by β-actin, and the data was analyzed.

[9] = molecular target: CDK9 (Homo sapiens, UniProt P50750); assay: experiment of inhibiting kinase activity (Caliper mobility shift assay), CDK9; assay type: biochemical; conditions: at 100 nM; read-out: inhibition rate CDK9
Method: as §2
The inhibitory effects of the compounds on JAK1, JAK2, JAK3, CDK7 and CDK9 kinases were detected by the method of Caliper mobility shift assay. 250 nL of the compound at 100-fold final concentration was transferred to a destination plate 384-well-plate by using a liquid handler Echo 550. A kinase solution at 2.5-fold final concentration was prepared with 1×kinase buffer. 10 µL of the kinase solution with 2.5-fold final concentration was added to compound wells and positive control wells; and 10 µL of 1×kinase buffer was added to negative control wells. The mixture was centrifuged at 1000 rpm for 30 seconds and then incubated at room temperature for 10 minutes. A mixed solution of ATP and kinase substrate at 5/3-fold final concentration was prepared with 1×kinase buffer, and 15 µL of the mixed solution of ATP and substrate at 5/3-fold final concentration was added to start the reaction. The 384-well plate was centrifuged at 1000 rpm for 30 seconds, shaked and mixed evenly, then incubated at room temperature for a corresponding time. 30 µL of stop solution was added to stop the kinase reaction, the mixture was centrifuged at 1000 rpm for 30 seconds, and shaked and mixed evenly. The conversion rate was read by Caliper EZ Reader. The conversion inhibition rate%=(average positive control conversion rate%-sample conversion rate%)/(average positive control conversion rate%-average negative control conversion rate%). Where negative control wells represent the conversion readings of the background well of kinase buffer; and positive control wells represent the conversion readings of wells without compound inhibition. With the log value of concentration as the x axis and the percentage inhibition rate as the y axis, the dose-response curve was fitted by the log (inhibitor) vs. response-variable slope of the analyzing softwar GraphPad Prism 5, and the IC50 values of each compound on enzyme activity were obtained. Calculation formula is as follows: y=Bottom+(Top-Bottom)/(1+10^((LogIC50-x)×hillslope)), where x is logarithm of inhibitor concentration; and Y is % inhibition rate.

[10] = molecular target: CDK7 (Homo sapiens, UniProt P50613); assay: experiment of inhibiting kinase activity (Caliper mobility shift assay), CDK7; assay type: biochemical; conditions: read-out: inhibition rate CDK7
Outline: as §1

Chain of JAK2 (O60674 whole entry): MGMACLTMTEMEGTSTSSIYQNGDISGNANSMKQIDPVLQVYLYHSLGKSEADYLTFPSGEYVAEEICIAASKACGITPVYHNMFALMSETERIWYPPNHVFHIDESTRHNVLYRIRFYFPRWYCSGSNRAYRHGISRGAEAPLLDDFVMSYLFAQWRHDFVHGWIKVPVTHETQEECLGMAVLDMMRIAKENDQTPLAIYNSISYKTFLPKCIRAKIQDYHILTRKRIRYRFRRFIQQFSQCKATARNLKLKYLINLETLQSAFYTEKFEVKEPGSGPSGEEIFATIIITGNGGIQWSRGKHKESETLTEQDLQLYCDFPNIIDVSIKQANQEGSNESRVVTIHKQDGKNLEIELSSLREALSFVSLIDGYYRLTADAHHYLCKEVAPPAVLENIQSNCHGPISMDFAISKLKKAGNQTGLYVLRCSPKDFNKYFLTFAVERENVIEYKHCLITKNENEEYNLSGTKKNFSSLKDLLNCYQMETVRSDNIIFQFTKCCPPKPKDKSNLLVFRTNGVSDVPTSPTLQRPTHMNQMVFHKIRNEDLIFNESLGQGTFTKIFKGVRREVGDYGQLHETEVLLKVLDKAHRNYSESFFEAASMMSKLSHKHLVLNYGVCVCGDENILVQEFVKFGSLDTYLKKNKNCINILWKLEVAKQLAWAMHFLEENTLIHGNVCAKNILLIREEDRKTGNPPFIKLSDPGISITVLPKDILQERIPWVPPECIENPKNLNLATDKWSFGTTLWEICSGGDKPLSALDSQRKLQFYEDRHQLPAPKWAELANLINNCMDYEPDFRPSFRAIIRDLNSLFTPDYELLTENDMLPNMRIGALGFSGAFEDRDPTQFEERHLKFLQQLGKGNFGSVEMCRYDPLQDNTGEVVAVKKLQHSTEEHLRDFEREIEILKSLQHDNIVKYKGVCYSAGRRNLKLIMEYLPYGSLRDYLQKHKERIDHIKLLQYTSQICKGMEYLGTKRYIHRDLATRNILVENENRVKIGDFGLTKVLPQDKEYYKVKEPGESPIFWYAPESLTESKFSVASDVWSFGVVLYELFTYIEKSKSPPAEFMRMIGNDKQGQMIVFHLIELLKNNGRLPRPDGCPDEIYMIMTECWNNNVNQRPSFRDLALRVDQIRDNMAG
T1 sequence (Q5S007 whole entry): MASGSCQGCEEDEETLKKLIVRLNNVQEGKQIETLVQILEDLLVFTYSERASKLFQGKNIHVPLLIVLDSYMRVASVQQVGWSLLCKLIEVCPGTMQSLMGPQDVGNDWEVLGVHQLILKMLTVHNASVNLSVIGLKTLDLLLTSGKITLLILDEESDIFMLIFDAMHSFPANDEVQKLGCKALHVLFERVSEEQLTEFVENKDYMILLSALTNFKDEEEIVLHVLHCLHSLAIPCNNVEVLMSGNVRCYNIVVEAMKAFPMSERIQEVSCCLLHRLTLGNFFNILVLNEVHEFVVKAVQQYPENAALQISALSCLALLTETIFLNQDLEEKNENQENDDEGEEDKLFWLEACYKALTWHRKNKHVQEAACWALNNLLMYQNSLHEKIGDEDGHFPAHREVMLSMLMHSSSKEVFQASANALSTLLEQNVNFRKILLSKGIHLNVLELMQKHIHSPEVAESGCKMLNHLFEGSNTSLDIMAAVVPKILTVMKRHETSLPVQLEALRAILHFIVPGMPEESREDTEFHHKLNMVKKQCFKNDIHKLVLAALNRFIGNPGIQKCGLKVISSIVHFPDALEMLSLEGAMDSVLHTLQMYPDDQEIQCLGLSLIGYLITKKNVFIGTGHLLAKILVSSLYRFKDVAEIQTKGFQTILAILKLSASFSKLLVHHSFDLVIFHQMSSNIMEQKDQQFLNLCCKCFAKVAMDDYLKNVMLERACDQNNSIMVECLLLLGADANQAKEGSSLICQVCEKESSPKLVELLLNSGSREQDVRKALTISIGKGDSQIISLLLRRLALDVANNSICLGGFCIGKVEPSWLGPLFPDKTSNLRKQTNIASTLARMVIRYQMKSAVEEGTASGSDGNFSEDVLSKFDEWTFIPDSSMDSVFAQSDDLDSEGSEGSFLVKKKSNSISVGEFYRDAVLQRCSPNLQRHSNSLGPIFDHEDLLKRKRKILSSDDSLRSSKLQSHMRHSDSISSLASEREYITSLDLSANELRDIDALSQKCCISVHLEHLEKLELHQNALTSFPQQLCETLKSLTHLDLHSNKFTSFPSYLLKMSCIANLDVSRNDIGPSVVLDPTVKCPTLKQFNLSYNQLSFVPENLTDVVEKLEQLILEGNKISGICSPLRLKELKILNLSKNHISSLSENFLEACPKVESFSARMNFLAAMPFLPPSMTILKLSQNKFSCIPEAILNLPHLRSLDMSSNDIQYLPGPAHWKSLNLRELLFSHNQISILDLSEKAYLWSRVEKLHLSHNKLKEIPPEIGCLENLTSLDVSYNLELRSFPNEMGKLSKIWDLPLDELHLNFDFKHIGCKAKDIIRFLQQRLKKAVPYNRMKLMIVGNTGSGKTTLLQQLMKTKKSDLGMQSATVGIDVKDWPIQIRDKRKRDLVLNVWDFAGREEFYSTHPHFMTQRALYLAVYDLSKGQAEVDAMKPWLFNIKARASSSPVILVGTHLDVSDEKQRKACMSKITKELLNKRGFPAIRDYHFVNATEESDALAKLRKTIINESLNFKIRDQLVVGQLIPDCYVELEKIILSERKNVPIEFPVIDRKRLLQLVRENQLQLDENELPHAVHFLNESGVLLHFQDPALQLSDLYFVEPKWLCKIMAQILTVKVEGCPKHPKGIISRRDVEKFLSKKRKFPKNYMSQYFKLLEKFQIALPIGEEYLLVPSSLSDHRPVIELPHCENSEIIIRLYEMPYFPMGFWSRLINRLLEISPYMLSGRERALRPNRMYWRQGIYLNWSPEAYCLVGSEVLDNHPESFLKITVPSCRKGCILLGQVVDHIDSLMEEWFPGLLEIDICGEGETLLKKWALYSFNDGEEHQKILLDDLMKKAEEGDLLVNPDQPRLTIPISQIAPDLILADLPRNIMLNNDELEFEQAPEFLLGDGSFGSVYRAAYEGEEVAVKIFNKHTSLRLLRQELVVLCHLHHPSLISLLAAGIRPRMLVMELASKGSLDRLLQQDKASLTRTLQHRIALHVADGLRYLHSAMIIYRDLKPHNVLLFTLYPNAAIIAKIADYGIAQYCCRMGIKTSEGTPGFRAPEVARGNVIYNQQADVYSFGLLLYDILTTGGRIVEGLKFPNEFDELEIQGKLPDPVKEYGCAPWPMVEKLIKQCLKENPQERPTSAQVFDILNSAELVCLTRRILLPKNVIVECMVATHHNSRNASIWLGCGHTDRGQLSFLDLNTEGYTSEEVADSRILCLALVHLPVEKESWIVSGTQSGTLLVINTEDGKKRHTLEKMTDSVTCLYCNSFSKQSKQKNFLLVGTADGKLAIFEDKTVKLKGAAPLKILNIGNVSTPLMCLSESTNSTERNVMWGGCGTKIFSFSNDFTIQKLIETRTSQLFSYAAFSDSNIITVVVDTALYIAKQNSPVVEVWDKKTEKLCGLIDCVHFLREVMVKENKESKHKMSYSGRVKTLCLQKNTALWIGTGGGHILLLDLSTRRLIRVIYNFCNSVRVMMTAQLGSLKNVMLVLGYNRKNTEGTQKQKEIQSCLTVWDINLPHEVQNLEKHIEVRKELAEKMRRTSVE
Chain of JAK1 (P23458 whole entry): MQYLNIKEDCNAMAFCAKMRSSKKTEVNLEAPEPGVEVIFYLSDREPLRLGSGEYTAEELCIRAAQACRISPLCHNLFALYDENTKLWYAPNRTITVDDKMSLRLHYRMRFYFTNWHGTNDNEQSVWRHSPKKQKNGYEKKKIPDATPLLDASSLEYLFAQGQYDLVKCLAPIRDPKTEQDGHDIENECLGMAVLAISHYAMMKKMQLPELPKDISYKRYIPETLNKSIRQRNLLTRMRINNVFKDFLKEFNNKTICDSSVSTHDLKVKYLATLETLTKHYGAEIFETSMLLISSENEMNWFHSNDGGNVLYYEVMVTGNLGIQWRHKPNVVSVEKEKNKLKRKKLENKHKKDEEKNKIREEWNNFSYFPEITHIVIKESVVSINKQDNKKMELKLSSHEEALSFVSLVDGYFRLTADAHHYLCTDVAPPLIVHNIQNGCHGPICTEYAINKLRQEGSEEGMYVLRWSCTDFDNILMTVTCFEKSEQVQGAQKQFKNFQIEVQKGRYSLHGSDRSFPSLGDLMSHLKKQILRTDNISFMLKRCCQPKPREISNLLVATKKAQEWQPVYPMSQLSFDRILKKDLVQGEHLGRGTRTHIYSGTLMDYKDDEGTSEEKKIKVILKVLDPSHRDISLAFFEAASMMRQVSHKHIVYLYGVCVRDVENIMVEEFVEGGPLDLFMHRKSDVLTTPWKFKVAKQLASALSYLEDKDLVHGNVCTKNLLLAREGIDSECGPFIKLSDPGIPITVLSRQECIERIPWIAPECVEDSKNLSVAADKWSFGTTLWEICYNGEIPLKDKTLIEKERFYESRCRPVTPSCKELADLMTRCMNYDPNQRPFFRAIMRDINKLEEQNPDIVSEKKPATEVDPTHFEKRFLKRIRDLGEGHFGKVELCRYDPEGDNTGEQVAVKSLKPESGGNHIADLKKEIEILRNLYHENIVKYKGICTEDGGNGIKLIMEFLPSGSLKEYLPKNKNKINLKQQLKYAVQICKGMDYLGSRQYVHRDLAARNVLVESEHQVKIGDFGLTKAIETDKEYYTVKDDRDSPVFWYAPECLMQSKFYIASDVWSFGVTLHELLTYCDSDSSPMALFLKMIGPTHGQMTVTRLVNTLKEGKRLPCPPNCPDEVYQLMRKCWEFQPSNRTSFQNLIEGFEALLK
T3 sequence (Q5S007 whole entry): as the sequence (Q5S007 whole entry) above

| inhibition at 0.01 µM [1] [%] | inhibition at 0.01 µM [2] [%] | inhibition at 0.01 µM ([3]; at 10 nM) [%] | solubility at 1 h [4] [µg/mL] | solubility [4] [µg/mL] | inhibition at 0.01 µM [5] [%] | inhibition at 0.01 µM ([6]; at 10 nM) [%] | IC50 [7] [µM] | inhibition at 2 µM [8] [%] | inhibition at 0.1 µM ([1]; at 100 nM) [%] | inhibition at 0.1 µM ([2]; at 100 nM) [%] | inhibition at 0.1 µM [9] [%] | inhibition at 0.1 µM ([3]; at 100 nM) [%] | inhibition at 0.01 µM ([10]; at 10 nM) [%] | inhibition at 0.1 µM ([10]; at 100 nM) [%] | inhibition at 0.1 µM ([5]; at 100 nM) [%] | inhibition at 0.1 µM ([6]; at 100 nM) [%] | Structure (SMILES) |
| --- | --- | --- | --- | --- | --- | --- | --- | --- | --- | --- | --- | --- | --- | --- | --- | --- | --- |
| > 80 | > 80 | > 80 | > 3500 | 120 (≈ 216 µM) | > 80 | > 80 | – | – | – | – | – | – | – | – | – | – | CN1CCOCCOc2cc(Nc3nc(-c4cnn([C@@H](CC#N)C5CCCC5)c4)c4cc[nH]c4n3)ccc2OCC1 [Example 75, (S)-3-cyclopentyl-3-(4-(2-((7-methyl-2,3,6,7,8,9-hexahydro-5H-benzo[b][1,4,7]trioxa[10]azacyclododecan-13-yl)amino)-7H-pyrrolo[2,3-d]pyrimidin-4-yl)-1H-pyrazol-1-yl) propionitrile] |
| – | – | – | > 3770 | 680 (≈ 1290 µM) | – | – | < 0.1 | > 80 | – | – | – | – | – | – | – | – | CN1CCOCCOc2ccc(Nc3ncc(C(F)(F)F)c(O[C@H]4CC[C@@](C)(O)CC4)n3)cc2OCC1 [Example 7, (1s,4s)-1-methyl-4-((2-((7-methyl-2,3,6,7,8,9-hexahydro-5H-benzo[b][1,4,7]trioxa[10]azacyclododecan-12-yl)amino)-5-(trifluoromethyl)pyrimidin-4-yl)oxy)cyclohexan-1-ol] |
| > 80 | > 80 | – | > 4330 | 180 (≈ 326 µM) | 40 to 79 | – | – | – | > 80 | > 80 | 40 to 79 | 40 to 79 | 40 to 79 | > 80 | > 80 | 40 to 79 | CC(C)S(=O)(=O)c1ccccc1Nc1nc(Nc2ccc3c(c2)OCCOCCNCCO3)nc2[nH]ccc12 [Example 97, N^2-(2,3,6,7,8,9-hexahydro-5H-benzo[b][1,4,7]trioxa[10]azacyclododecan-13-yl)-N^4-(2-(isopropylsulfonyl)phenyl)-7H-pyrrolo[2,3-d]pyrimidin-2,4-diamine] |
| – | – | – | > 3830 | 688 (≈ 1450 µM) | – | – | < 0.1 | – | – | – | – | – | – | – | – | – | CN1CCOc2ccc(Nc3ncc(C(F)(F)F)c(NCCP(C)(C)=O)n3)cc2OCC1 [Example 86, dimethyl(2-((2-((4-methyl-3,4,5,6-tetrahydro-2H-benzo[b][1,4,7]dioxazolin-9-yl)amino)-5-(trifluoromethyl)pyrimidin-4-yl)amino)ethyl)phosphine oxide] |
